Laboratory results reported in patent publication US10610582B2, “Compound and method for vaccination and immunisation” (PCI Biotech AS, priority 2013, dated 2020).
Read-outs that look alike come from different tables or passages of the source.

Key:
IFN-γ = assay type: in vivo, C57BL/6 mice; conditions: day 14 spleen, 10 μg OVA + labelled TLR ligand + PCI, compared with other groups
IL-2 = assay type: in vivo, C57BL/6 mice; conditions: day 14 spleen, 10 μg OVA + labelled TLR ligand + PCI, compared with other groups
[1] = system: antigen specific CD8 T-cells; assay type: in vivo, C57BL/6 mice; conditions: particularly after 2nd immunisation; 200 μg OVA + 50 μg poly(IC) + PCI (150 μg TPCS2a + light), group 5
Text: The following experimental groups were included:

[2] = system: antigen specific CD8 T-cells
[3] = system: antigen specific CD8 T-cells (HPV pentamer); experiment: PCI with HPV peptide antigen and poly(IC) in normal mice, HPV pentamer flow cytometry (Example 12); conditions: after three immunisations; 50 μg HPV peptide + 10 μg poly(IC) twice, 3rd with poly(IC) + PCI (100 μg TPCS2a + light), group 6
[4] = system: antigen specific CD8 T-cells; assay type: in vivo, C57BL/6 mice; conditions: 200 μg OVA + 10 μg poly(IC) injected 2 h before illumination, TPCS2a 150 μg 18 h before illumination
Protocol: In all groups TPCS2a was injected 18 h before illumination, while OVA antigen and poly(IC) was either injected 18 h before illumination in a mixture with TPCS2a, or 2 h before illumination as a separate injection. Illumination was for 6 min with the LumiSource illumination device. […]

OVA-specific CD8 T-cells = experiment: Vaccination with OVA, Poly(IC) or CpG ODN2395 in mice given OT-1 cells: OVA-specific CD8 T-cells in blood by flow cytometry (Example 3); assay type: in vivo, C57BL/6 mice; conditions: day 7
Protocol: One day prior to the immunisation, spleens and lymph nodes were isolated from female OT-1 mice, and erythrocytes were removed by lysis (RBC Lysing Buffer Hybri-Max from Sigma-Aldrich) from the homogenised cell suspensions. […] One day or 8 hours later, mice were bled by tail bleeding, and the blood was collected in heparin-containing tubes for analysis of the baseline frequency of OVA-specific CD8 T cells.
The illumination time was 6 minutes.
At the end of the experiment (day 14), the mice were euthanized and the splenocytes analysed ex vivo.

[5] = system: antigen specific CD8 T-cells (HPV pentamer); experiment: PCI with HPV short peptide antigen and poly(IC) in normal mice, HPV pentamer flow cytometry (Example 16)
[6] = system: antigen specific CD8 T-cells; assay type: in vivo, C57BL/6 mice; conditions: 3rd immunisation (day 51) with poly(IC)+PCI after two immunisations with poly(IC) only, group 2
Protocol: The generation of immunological memory was tested by a 3rd immunisation at day 51 with a poly(IC)+PCI treatment. […]

[7] = system: antigen-specific CD8+ T-cells (TRP-2 pentamer); experiment: PCI with melanoma antigen peptides (TRP-2 and gp100) and poly(IC) in normal mice, TRP-2 pentamer flow cytometry (Example 6); assay type: in vivo, C57BL/6 mice; conditions: after 2nd immunisation
[8] = system: antigen specific CD8 T-cells (HPV pentamer); experiment: PCI with HPV long peptide antigen and poly(IC) in normal mice, HPV pentamer flow cytometry (Example 15)
[9] = 10 μg OVA with the labelled agent alone (50 μg ODN2395 CpG or 50 μg Poly(IC) without PCI; PCI = 150 μg TPCS2a + light without adjuvant)
[10] = HPV short peptide with only the labelled agent (only p(IC) or only PCI) for both immunisations
[11] = TRP-2 + gp100 peptides (50 μg each) with the labelled agent alone (10 μg poly(IC), or PCI = 100 μg TPCS2a + light), vs untreated

CCOCc1nc2c(N)nc3ccccc3c2n1CC(C)(C)O [R848, 1-[4-amino-2-(ethoxymethyl)imidazo[4,5-c]quinolin-1-yl]-2-methylpropan-2-ol]
IFN-γ production in total spleen cells (ELISA) (IFN-γ): highest
IL-2 production in total spleen cells (ELISA) (IL-2): highest

Polyinosine-polycytidylic acid [Poly(IC)]
% antigen-specific, CD44+ cells of the total CD8+ cells [1]: substantially better immunisation than only poly(IC) (group 4) or only PCI (group 3)
% antigen-specific, CD44+ cells of the total CD8+ cells ([2]; 10 μg OVA + poly(IC) (50 μg 1st, 10 μg 2nd) + red light PCI, group 6): required to achieve an immune response
% antigen-specific, CD44+ cells of the total CD8+ cells ([2]; 100 μg OVA + poly(IC) (50 μg 1st, 10 μg 2nd) + red light PCI, group 7, vs antigen alone): substantially better
% antigen-specific, CD44+ cells of the total CD8+ cells (HPV pentamer) [3]: HPV-specific immune response was induced
% antigen-specific, CD44+ cells of the total CD8+ cells [4]: immune response is enhance
% antigen-specific, CD44+ cells of the total CD8+ cells in blood (OVA-specific CD8 T-cells; 10 μg OVA + 50 μg labelled adjuvant combined with PCI (150 μg TPCS2a + light)): clear synergistic effect
% antigen-specific, CD44+ cells of the total CD8+ cells in blood (OVA-specific CD8 T-cells; [9]): no significant
% antigen-specific, CD44+ cells of the total CD8+ cells (HPV pentamer) [5, 10]: no immune response
% antigen-specific, CD44+ cells of the total CD8+ cells (HPV pentamer) ([5]; HPV short peptide, 1st immunisation p(IC)+PCI, 2nd immunisation PCI only, group 6): significant immune response
% antigen-specific, CD44+ cells of the total CD8+ cells (HPV pentamer) ([5]; after two immunisations, both with 50 μg HPV short peptide + 10 μg p(IC) + PCI (100 μg TPCS2a + light), group 5): significant immune response
% antigen-specific, CD44+ cells of the total CD8+ cells [6]: did not seem to boost immunisation to any significant degree
% antigen-specific, CD44+ cells of the total CD8+ cells (TRP-2 pentamer) [7, 11]: no significant increase in antigen-specific cells
% antigen-specific, CD44+ cells of the total CD8+ cells (TRP-2 pentamer) ([7]; TRP-2 + gp100 peptides + 10 μg poly(IC) + PCI (100 μg TPCS2a + light), group 4): clear synergistic effect leading to a significant increase in the number of antigen-specific CD8+ T-cells
% antigen-specific, CD44+ cells of the total CD8+ cells (HPV pentamer) ([8]; HPV long peptide + 10 μg p(IC) twice, without PCI, group 2): no effect
% antigen-specific, CD44+ cells of the total CD8+ cells (HPV pentamer) ([8]; HPV long peptide, one immunisation with PCI+p(IC), one with only PCI, groups 4 and 5): weaker, but still significant immune response
% antigen-specific, CD44+ cells of the total CD8+ cells (HPV pentamer) ([8]; after two immunisations, both with 50 μg HPV long peptide + 10 μg p(IC) + PCI (100 μg TPCS2a + light), group 3): strong HPV-specific immune response

tetraphenyl chlorin disulfonate [PCI]
% antigen-specific, CD44+ cells of the total CD8+ cells ([2]; 10 μg OVA alone or with red light PCI (150 μg TPCS2a, 652 nm) only, after 1st and 2nd immunisation): no immunisation effect
% antigen-specific, CD44+ cells of the total CD8+ cells in blood (OVA-specific CD8 T-cells; [9]): substantially more potent than either of these adjuvants
% antigen-specific, CD44+ cells of the total CD8+ cells (HPV pentamer) [5, 10]: no immune response
% antigen-specific, CD44+ cells of the total CD8+ cells (TRP-2 pentamer) [7, 11]: no significant increase in antigen-specific cells
